Measured values as given in patent US20190202774A1, “BIARYL COMPOUNDS AS ANTIMICROBIAL AND CHEMOTHERAPEUTIC AGENTS” (priority 2015, published 2019).
≈ marks a conversion by molar mass, not a printed value. Entries after “also recorded” stand apart in the source; their conditions may differ. Like-named read-outs stand apart in the source and are kept apart here.

Tests used:
[1] = tested on: A549; assay: Lung cancer cell survival, A549; assay type: cell-based; conditions: 72 hour incubation, non-linear curve fit
Protocol: (§1) The IC50 values generated using a non-linear curve fit with lung cancer cell lines, A549, H460, H2122, and H2073 are listed in Table 10. Experiments were performed using C58, C58-2, C59, C59-2, C119, and acetylated C119 (C119-2). […] Additionally, these concentrations are clinically achievable for treatment of lung cancer and a detailed structure activity relationship experiments needs to be performed to identify promising anticancer candidates.

[2] = tested on: 38 MRSA strains; assay: microbe, parasite or virus in culture; conditions: Staphylococcus aureus
[3] = tested on: H2122; assay: Lung cancer cell survival, H2122; assay type: cell-based; conditions: 72 hour incubation, non-linear curve fit
Protocol: as §1

[4] = tested on: MRSA strain USA300; assay: DiSC3(5) membrane permeabilization; assay type: cell-based, Staphylococcus aureus; conditions: 0.1 and 0.5 μg/mL
Protocol: Biaryl compounds and their analogues have been reported to be membrane active agents (Isnansetyo and Kamei, 2003 and Kamei et al., 2003). An experiment was performed to verify the membrane permeabilization activity of biaryl compound. C58 using a fluorescent dye, 3,3′-Dipropylthiacarbocyanine iodide (DiSC3(5)). The fluorescence signal from DiSC3(5) is in a quenched state when it interacts with the hydrophobic region of the cell membrane. Upon disruption of the membrane, DiSC3(5) is released and regains its fluorescent activity, which is measured as a fluorescence signal (RFU).

[5] = tested on: erythrocytes from sheep blood; assay: Hemolytic activity; conditions: sheep
Protocol: Toxicity of biaryl compounds was tested against erythrocytes as well as eukaryotic epithelial, dermal, and macrophage cell lines in vitro.
Toxicity of lead antimicrobial candidates was tested against erythrocytes, as well as eukaryotic epithelial and dermal cell lines in vitro.

[6] = tested on: MRSA strains SAD05 and 0632 in a biofilm; assay: MBEC High-throughput biofilm assay; assay type: cell-based, Staphylococcus aureus; conditions: six-hour incubation, SAD05 and 0632
[7] = tested on: eukaryotic cell lines tested; assay: ALAMARBLUE Cell Viability Assay, LD50 quoted in text (cell line not given); conditions: 24 hours; cell line not named in the sentence (Table 3 not given)
Protocol: (§2) Finally, toxicity of biaryl compounds was tested against human lung airway epithelial cells (16HBE), human dermal fibroblasts, and J774.A1 murine macrophages using an ALAMARBLUE® Cell Viability Assay. Biaryl compounds, C58, acetylated C58 (C58-2), C59, C59-2, C59Na, and C59Li were incubated with cells for 24 hours and an ALAMARBLUE® Cell Viability Assay was performed to determine cell viability relative to untreated controls (FIGS. 13A-13C). Cell viability curves were analyzed using non-linear curve fit to yield the inhibitory concentration at median cell survival (LD50) for all cell lines (Table 3).

[8] = tested on: R. equi strains 701+, 701−, 703, and 5331; assay: MIC/MBC broth microdilution against R. equi; assay type: cell-based, Rhodococcus equi
[9] = tested on: E. faecalis strains 49532 and 51575; assay: MIC/MBC broth microdilution against E. faecalis; assay type: cell-based, Enterococcus faecalis
[10] = tested on: 21 S. epidermidis strains; assay: MIC90/MBC90 broth microdilution against 21 S. epidermidis strains; assay type: cell-based, Staphylococcus epidermidis
Description: We are currently in the process of evaluating the MICs and MBCs for 5-32.

[11] = tested on: MRSA SA LL06; assay: Growth curves (OD650, 18-h), MRSA SA LL06; assay type: cell-based, Staphylococcus aureus; conditions: SA LL06, 18-h
[12] = tested on: H2073; assay: Lung cancer cell survival, H2073; assay type: cell-based; conditions: 72 hour incubation, non-linear curve fit
Protocol: as §1

[13] = tested on: H460; assay: Lung cancer cell survival, H460; assay type: cell-based; conditions: 72 hour incubation, non-linear curve fit
Protocol: as §1

[14] = tested on: MRSA strains USA300, 0606, 0608, 0634, 0641, and 0646; assay: MIC/MBC against six MRSA strains (variants of C58/C59, pH, DMSO); assay type: cell-based, Staphylococcus aureus
Protocol: Six MRSA strains, USA300, 0606, 0608, 0634, 0641, and 0646 were chosen based on their activity against biaryl compounds and vancomycin to determine structure-activity relationship of biaryl compounds. The effect of phenolic group on the activity of biaryl compounds was tested by modifying C59. First, the phenolic group was protected by acetylation to yield an acetylated C59 (C59-2) (FIG. 7B). Additional variants of C59, in the form of sodium and lithium salts were synthesized by incubation with sodium hydroxide and lithium hydroxide (FIGS. 7C and 7D). Antimicrobial activity of these deprotonated, water-soluble sodium (C59Na) and lithium (C59Li) salts, and acetylated derivative of C59 was tested against 6 MRSA strains and compared to the parent compound, C59 (FIGS. 8A-8D). Results from this comparative experiment indicate the contribution of phenolic group/phenoxide ion to the antimicrobial activity.
Further investigation into activity of these compounds under acidic pH conditions also points towards the role of phenolic group. An effective antimicrobial should be active under a wide range of pH conditions, including the physiological pH of 7.4. Localized pH in an infection is often lower than the physiological pH, and may be as low as 5.5 (Radovic-Moreno et al., 2012). Additionally, pH varies among organs (Radovic-Moreno et al., 2012). For example, pH in the bladder or on the skin is found to be between 4.5 and 8.0, or 4.0 and 5.5, respectively (Radovic-Moreno et al., 2012). […] The activity of all biaryl compounds is enhanced by at least four- to eight-fold with reduction in pH from 7.4 to 5.5.
Water soluble sodium and lithium salts of C59 (C59Na and C59Li) and their antimicrobial activity against six MRSA strains are reported above. A sodium salt of C58 (C58Na) was prepared and evaluated efficacy of this compound against these six MRSA strains. […] The poor activity of C58Na may be a result of poor stability of C58Na compared with C59Na and C59Li.

[15] = tested on: human lung airway epithelial cells (16HBE); conditions: 24-h incubation, non-linear curve fit
Protocol: as §2
Next, the toxicity of lead candidates was tested against human lung airway epithelial cells (16HBE) and human dermal fibroblasts (HDF) using an alamarBlue® Cell Viability Assay.

[16] = tested on: MRSA strain USA 300; assay: Growth curves (OD650, 18-h), MRSA USA 300; assay type: cell-based, Staphylococcus aureus; conditions: stationary phase USA 300, 18-h, compared with non-treated control
Protocol: The rate of bacterial growth in presence of antimicrobial candidates, C58, C59, C59Na, or 4-76, was performed using stationary phase MRSA, USA 300 and SA LL06, or S. epidermidis, M0881, and compared with SoC antimicrobial, vancomycin. In addition, these growth rates were compared with the kill kinetics described earlier (FIGS. 4 & 5). […] A reduction in bacterial growth rate, represented by a lower absorbance at OD650, can be observed with C59 and C59Na at concentrations as low as 0.125×MIC compared with non-treated control. […] However, in the kill kinetics experiments, vancomycin fails to eradicate stationary phase MRSA at concentrations up to 2×MIC. This anomaly can be explained by the different experimental conditions between the kill kinetics and growth curve experiments; bacterial samples are grown with constant shaking on an orbital shaker for a kill kinetics experiment but not for a growth curve experiment.
Finally, the antimicrobial efficacy of enantiomers of compound 4-76 were evaluated against log-phase MRSA strain USA 300, as described earlier.

[17] = tested on: MRSA strain USA300; assay: Kill kinetics with planktonic log-phase MRSA; assay type: cell-based, Staphylococcus aureus; conditions: log-phase USA300, 24 hours
[18] = tested on: MRSA strains USA300 and SALL06; assay: Kill kinetics with stationary-phase MRSA; assay type: cell-based, Staphylococcus aureus; conditions: stationary-phase USA300 and SALL06, up to 24 hours
[19] = tested on: 38 MRSA strains; conditions: MH broth
[20] = tested on: seven S. pyogenes strains; assay: MIC/MBC against panel of S. pyogenes strains; assay type: cell-based, Streptococcus pyogenes; conditions: range over seven S. pyogenes strains
Protocol: The activity of compounds against Gram-positive pathogens, S. pyogenes and S. pneumoniae, identified through the preliminary screen (FIG. 15) was evaluated against a panel of these pathogens.

[21] = Rhodococcus (subgen. Prescottella) equi, strain 701+
[22] = Rhodococcus (subgen. Prescottella) equi, strain 701−
[23] = Rhodococcus (subgen. Prescottella) equi, strain 703
[24] = Rhodococcus (subgen. Prescottella) equi, strain 5331

| SMILES | A549 LD50 [1] | H2122 LD50 [3] | LD50 (inhibitory concentration at median cell survival) [7] | MBC ([9]; strain 51575) | MIC ([9]; strain 51575) | lowest concentration with reduction in bacterial growth rate [11] | H2073 LD50 [12] | H460 LD50 [13] | lowest concentration with reduction in bacterial growth rate (lower OD650) [16] | MBC ([8]; strain 701+) | MIC ([8]; strain 701+) | MBC ([8]; strain 701−) | MIC ([8]; strain 701−) | MBC ([8]; strain 703) | MIC ([8]; strain 703) | MBC ([8]; strain 5331) | MIC ([8]; strain 5331) | MBC ([9]; strain 49532) | MIC ([9]; strain 49532) | also measured |
| --- | --- | --- | --- | --- | --- | --- | --- | --- | --- | --- | --- | --- | --- | --- | --- | --- | --- | --- | --- | --- |
| Oc1c(Br)cc(Br)cc1-c1cc(Br)cc(Br)c1O [C58, bromophene] | 120 µM | 98 µM | 60 µg/mL | 12 µg/mL (≈ 23.9 µM) | 6 µg/mL (≈ 12 µM) | 0.125 ×MIC | 32 µM | 42 µM |  |  |  |  |  |  |  |  |  |  |  | MIC90 [2]: 2 µg/mL (≈ 3.99 µM); MBC ([2]; read-out: MBC90): 4 µg/mL (≈ 7.97 µM); membrane disruption (DiSC3(5) fluorescence) [4]: positive membrane disruption; onset of hemolysis ([5]; 1 h): > 64 µg/mL; onset of hemolysis ([5]; 18 h): 16 to 20 µg/mL; concentration that completely eradicates bacteria in a biofilm [6]: 16 µg/mL; MBC [8, 21]: 4 µg/mL (≈ 7.97 µM); MIC [8, 21]: 1 µg/mL (≈ 1.99 µM); MBC [8, 22]: 8 µg/mL (≈ 15.9 µM); MIC [8, 22]: 1 µg/mL (≈ 1.99 µM); MBC [8, 23]: 8 µg/mL (≈ 15.9 µM); MIC [8, 23]: 0.5 µg/mL (≈ 0.996 µM); MBC [8, 24]: 4 µg/mL (≈ 7.97 µM); MIC [8, 24]: 1 µg/mL (≈ 1.99 µM); MBC ([9]; Enterococcus faecalis): 12 µg/mL (≈ 23.9 µM); MIC ([9]; Enterococcus faecalis): 6 µg/mL (≈ 12 µM); MIC90 ([10]; Staphylococcus epidermidis): 2 µg/mL (≈ 3.99 µM); MBC ([10]; Staphylococcus epidermidis, read-out: MBC90): 8 µg/mL (≈ 15.9 µM) |
| [Na+].[Na+].[O-]c1c(Cl)cc(Cl)cc1-c1cc(Cl)cc(Cl)c1[O-] [C59Na] |  |  |  | 24 µg/mL | 12 µg/mL |  |  |  | 0.125 ×MIC | 16 µg/mL | 2 µg/mL | 32 µg/mL | 8 µg/mL | 8 µg/mL | 1 µg/mL | 8 µg/mL | 2 µg/mL | 24 µg/mL | 12 µg/mL | activity in the absence of DMSO versus with 2.5% DMSO [14]: at least comparable activity; antimicrobial activity (MIC and MBC) compared to the parent compound [14]: enhanced activity; also recorded: superior activity over C59; 16HBE LD50 [15]: 30 µg/mL |
| Oc1c(Cl)cc(Cl)cc1-c1cc(Cl)cc(Cl)c1O [C59] | 123 µM | 91 µM | 40 µg/mL | 16 µg/mL (≈ 49.4 µM) | 8 µg/mL (≈ 24.7 µM) | 0.125 ×MIC | 43 µM | 37 µM | 0.125 ×MIC | 4 µg/mL (≈ 12.3 µM) | 2 µg/mL (≈ 6.17 µM) | 16 µg/mL (≈ 49.4 µM) | 2 µg/mL (≈ 6.17 µM) | 8 µg/mL (≈ 24.7 µM) | 2 µg/mL (≈ 6.17 µM) | 4 µg/mL (≈ 12.3 µM) | 2 µg/mL (≈ 6.17 µM) | 16 µg/mL (≈ 49.4 µM) | 8 µg/mL (≈ 24.7 µM) | concentration of complete killing [17]: 8 µg/mL; dose response of bacterial eradication [17]: dose-dependent manner; lowest concentration with reduction in bacterial burden ([17]; compared with untreated bacteria): 0.5 µg/mL; eradication of stationary-phase bacteria [18]: continues to eradicate bacteria; MBC90 [19]: 6 µg/mL (≈ 18.5 µM); MIC90 [19]: 2 µg/mL (≈ 6.17 µM); MBC90 ([10]; 21 S. epidermidis strains): 12 µg/mL (≈ 37 µM); MIC90 ([10]; 21 S. epidermidis strains): 4 µg/mL (≈ 12.3 µM); MBCs [20]: 12 to 24 µg/mL; MICs [20]: 2 to 12 µg/mL |
